What was measured:
[1] = Plasma pharmacokinetics of cocaine and benzoylecgonine after IV cocaine-d5 infusion; details: plasma, mean ± SD; for half-life / AUC(0-t) / AUC(0-inf) / clearance / Tmax / Vd / Cmax / k el: human, in vivo; for half-life: (t1/2)z; for clearance: CL; for Vd: Vz; for Cmax: iv, cocaine-d5 IV 0.5 mg/kg over 10 min then 2 mg/kg over 4 h; for k el: λz
Procedure: In this open-label, unblinded study, a 0.5 mg/kg intravenous loading dose of cocaine-d5 HCl over 10 minutes was followed by a slow 4 hour constant rate cocaine-d5 infusion of 2.0 mg/kg(~175 mg for a 70 kg person). […] When this method of cocaine administration is utilized, a larger dose can be given over a longer period of time and approximates frequently reported patterns of cocaine use. This method also allowed for close monitoring and termination of the infusion if untoward psychiatric or cardiovascular effects occurred.
For both cocaine infusions (sessions 1 and 2), plasma samples for cocaine and metabolites (~6 ml) were obtained 5 minutes before and 10 minutes, 0.5, 1, 1.5, 2, 4, 4.25, 4.5, 5, 6, 8, 12, 21, 27, 33, and 45 hours after each cocaine infusion.
Plasma concentrations of cocaine and benzoylecgonine were measured in our laboratory using a method we developed. The method allows for simultaneous determination of cocaine, benzoylecgonine, and deuterium-labeled analogs [cocaine-d5 and benzoylecgonine-d5 (BE-d5)] by using combined gas chromatography-mass spectrometry (GC-MS). Differently labeled stable isotope analogs were used as internal standards. The calibration curves were from 5 to 2,000 ng/mL for cocaine-d5 and 10 to 2,000 ng/mL for BE-d5. Lower limits of quantitation (LLOQ) were 5 ng/ml (cocaine-d5) and 10 ng/ml (BE-d5) in plasma. Qualitative urine benzoylecgonine was measured by Northwest Toxicology Laboratory, Salt Lake City, Utah, using the Roche Diagnostics Online® immunoassay.
The plasma concentration-time profiles for cocaine and benzoylecgonine (BE) were analyzed by non-compartmental methods, utilizing the pharmacokinetic data analysis program WinNonlin Pro, version 3.0 [31].
The area under the plasma concentration-time curve was calculated using the linear trapezoidal rule up to the maximum plasma concentration, and thereafter using the logarithmic trapezoidal rule to the last measurable plasma concentration. The remaining area was extrapolated to infinity by dividing the last appropriate plasma concentration by the terminal exponential rate constant.
Maximum plasma concentration (Cmax) and time of maximum plasma concentration (Tmax) were determined by visual inspection of data. "Terminal" exponential half-life [(t1/2)z] was calculated from log-linear regression of "terminal" exponential phase data points. Cocaine clearance (CL) and terminal exponential volume of distribution (Vz) were calculated by conventional equations: CL = [Dose/Area under the curve (AUC)0-∞] and Vz = CL/λz, respectively, where λz ("terminal" exponential rate constant) = ln2/(t1/2)z. […] Amount of BE in urine samples was calculated by multiplying concentration by volume.

[2] = humans; cited from earlier work
[3] = test system: nondependent cocaine-experienced subjects; assay: Physiologic measures during cocaine challenge sessions; type: in vivo, human; details: for Systolic Blood Pressure, Peak change: Mean ± SD, 12 subjects
Procedure: Heart rate, systolic and diastolic blood pressure were measured using a cardiovascular monitor (Dinamap by Critikon, Vital Signs Monitor 1846 SX). Rate pressure product was calculated as the product of systolic blood pressure and heart rate. Respiration rate was measured by counting the number of inhalations per minute. These vital signs were determined with the patient in a supine position for at least 10 minutes.
Heart rate, blood pressure, respiration rate, skin and core temperature were recorded at specific times during the study. During infusions, measures were obtained pre-dose and at 0.17, 0.5, 0.75, 1, 1.5, 2, 2.5, 3, 3.5, 4, 4.25, 4.5, 5, 6, 8, 12, 18, 24, 36, 48, and 72 hours after dosing. The electrocardiogram was monitored continuously during the infusion and for 4 hours after the termination of the intravenous cocaine infusion. EKG tracings were recorded at each data collection point.
The time courses of physiologic and subjective data were analyzed by repeated measures analysis of variance (ANOVA). Treatment conditions (Sessions 1 and 2) and observation times (hours post-dose) were considered within-subject factors. Change scores (post-dose minus pre-dose values) were used in most analyses. Raw score were used where indicated. After a significant F test, pairwise comparisons of treatment conditions were performed using the least squares means analysis. Peak effects within a session were determined for each subject and each variable and analyzed using a one-factor repeated measures ANOVA. Effects were considered statistically significant at p = 0.05. Data were adjusted for sphericity using the Huynh-Feldt adjustment factor. Huynh-Feldt-corrected significance values are reported.

[4] = Session 1: first cocaine infusion, before selegiline
[5] = Session 2: second cocaine infusion, after one week of selegiline STS
[6] = both cocaine challenge sessions, p < 0.01

Compound `COC(=O)[C@H]1[C@@H](OC(=O)c2ccccc2)C[C@@H]2CC[C@H]1N2C` [Cocaine, cocaine] has an AUCext ([1]; Pre Selegiline (session 1)) of 1.40 ± 1.03%, an AUCext ([1]; With Selegiline (session 2)) of 1.78 ± 1.87% and a half-life ([1]; Pre Selegiline (session 1)) of 1.71 ± 0.81 h. For the same compound, the half-life ([1]; With Selegiline (session 2)) was 1.57 ± 0.3 h, the AUC(0-t) ([1]; Pre Selegiline (session 1)) was 2640 ± 55.6 ng·h/mL and the AUC(0-t) ([1]; With Selegiline (session 2)) was 2360 ± 499 ng·h/mL. It also gave an AUC(0-inf) ([1]; Pre Selegiline (session 1)) of 2680 ± 1470 ng·h/mL, an AUC(0-inf) ([1]; With Selegiline (session 2)) of 2400 ± 487 ng·h/mL and a clearance ([1]; Pre Selegiline (session 1)) of 18.3 ± 6.17 mL/min/kg. The clearance ([1]; With Selegiline (session 2)) was 18 ± 3.34 mL/min/kg, the Tmax ([1]; Pre Selegiline (session 1)) was 2.66 ± 1.74 h and the Tmax ([1]; With Selegiline (session 2)) was 2.27 ± 2.04 h. For the same compound, the Vd ([1]; Pre Selegiline (session 1)) was 2.49 ± 0.88 L/kg, the Vd ([1]; With Selegiline (session 2)) was 2.44 ± 0.64 L/kg and the Cmax ([1]; Pre Selegiline (session 1)) was 721 ± 773 ng/mL. It also gave a Cmax ([1]; With Selegiline (session 2, after one week STS 6 mg/24 hours)) of 640 ± 332 ng/mL, a k el ([1]; Pre Selegiline (session 1)) of 0.000126 s⁻¹ and a k el ([1]; With Selegiline (session 2)) of 0.000127 s⁻¹. For the same compound, the “half life of acute pharmacokinetic and dynamic effects” value [2] was “about 1 hour”, the “Core Temperature, Peak Time” value [3, 4] was 4.5 ± 1.6 Hr Postdose and the “Core Temperature, Peak change” value [3, 4] was 0.7 ± 0.2 °C. The “Diastolic Blood Pressure, Peak Time” value [3, 4] was 2.8 ± 2.4 Hr Postdose, the “Diastolic Blood Pressure, Peak change” value [3, 4] was 10 ± 5 mmHg and the “Heart Rate, Peak Time” value [3, 4] was 0.8 ± 0.9 Hr Postdose. The “Heart Rate, Peak change” value [3, 4] was 26 ± 10 beats/min, the “Rate Pressure Product, Peak Time” value [3, 4] was 1.4 ± 1.5 Hr Postdose and the “Rate Pressure Product, Peak change” value [3, 4] was 4224 ± 1638 SBP*HR. The “Respiration Rate, Peak Time” value [3, 4] was 0.9 ± 1.3 Hr Postdose, the “Respiration Rate, Peak change” value [3, 4] was 3.8 ± 4.0 inhal/min and the “Skin Temperature, Peak Time” value [3, 4] was 0.8 ± 0.4 Hr Postdose. For the same compound, the “Skin Temperature, Peak change” value [3, 4] was -5.4 ± 2.7 °C, the “Systolic Blood Pressure, Peak Time” value [3, 4] was 2.2 ± 1.9 Hr Postdose and the “Systolic Blood Pressure, Peak change” value ([3]; Session 1: first cocaine infusion, day 1, before selegiline) was 17 ± 8 mmHg. For the same compound, the “Core Temperature, Peak Time” value [3, 5] was 4.2 ± 1.9 Hr Postdose, the “Core Temperature, Peak change” value [3, 5] was 0.7 ± 0.5 °C and the “Diastolic Blood Pressure, Peak Time” value [3, 5] was 2 ± 2 Hr Postdose. The “Diastolic Blood Pressure, Peak change” value [3, 5] was 12 ± 6 mmHg, the “Heart Rate, Peak Time” value [3, 5] was 0.9 ± 1.7 Hr Postdose and the “Heart Rate, Peak change” value [3, 5] was 27 ± 12 beats/min. The “Rate Pressure Product, Peak Time” value [3, 5] was 0.9 ± 1.6 Hr Postdose, the “Rate Pressure Product, Peak change” value [3, 5] was 4437 ± 2333 SBP*HR and the “Respiration Rate, Peak Time” value [3, 5] was 0.4 ± 0.3 Hr Postdose. For the same compound, the “Respiration Rate, Peak change” value [3, 5] was 3.8 ± 3.6 inhal/min, the “Skin Temperature, Peak Time” value [3, 5] was 1.0 ± 1.2 Hr Postdose and the “Skin Temperature, Peak change” value [3, 5] was -5 ± 3.2 °C. For the same compound, the “Systolic Blood Pressure, Peak Time” value [3, 5] was 1.9 ± 1.7 Hr Postdose, the “Systolic Blood Pressure, Peak change” value ([3]; Session 2: second cocaine infusion, day 11, after one week of selegiline STS patch 6 mg/24 hours) was 17 ± 9 mmHg and the “Skin temperature compared to baseline” value [3, 6] was “decreased significantly”. For the same compound, the “Systolic blood pressure, heart rate, and rate pressure product compared to baseline” value [3, 6] was “increased significantly” and the “Diastolic blood pressure, respiration rate, and core temperature” value ([3]; cocaine either alone or with selegiline) was “did not alter”.

— paper PMC2731040 (BMC Clinical Pharmacology, 2009)
